The values below come from paper PMC10650955, “α-Aminophosphonate inhibitors of metallo-β-lactamases NDM-1 and VIM-2” (RSC Medicinal Chemistry, 2023).

Where a name gives a salt, the structure may show the parent alone.

The IC50 is the point on the concentration scale where inhibition reaches its midpoint.

For one assay, the target named is T1, NDM-1 (Klebsiella pneumoniae, UniProt C7C422).
T1 construct: made in house
Description: Dose rate inhibition studies for IC50 determination, NDM-1 enzymatic assay. Type of assay: biochemical. The settings on record: inhibitor 0-800 μM, 3 parallel measurements, N.I. = no enzyme inhibitory activity observed; for Enzyme IC50 NDM-1: 10 nM NDM-1, 100 μM ZnCl2, imipenem substrate; for IC50: Enzyme IC50 NDM-1, 10 nM NDM-1, 100 μM ZnCl2, imipenem substrate. The procedure:
(§1) The […] synthesized compounds 5a–l were tested for their inhibitory activities against NDM-1, VIM-2 (Table 1), and GIM-1 in an in vitro enzymatic assay (ESI ^†).[41] The inhibitory activity was measured using enzyme concentrations of 0.1 nM VIM-2, 10 nM NDM-1 or 1 nM GIM-1, with an excess Zn(II) (100 μM, see Experimental methods), with inhibitor compounds with concentrations from 0 to 800 μM. Each data point was measured in triplicates. […] This is in line with previous reports.[42,43]
(§2) A 100 μl solution with buffer (50 mM HEPES (pH 7.2), 100 μM ZnCl2, 2.5% DMSO), purified enzyme (0.1 nM VIM-2, 10 nM NDM-1 or 1 nM GIM-1) and 800–0 μM inhibitor was incubated in a 96 well plate at 25 °C for 5 min. In addition, the enzyme buffer contained 400 μg ml^−1 bovine serum albumin (BSA) to prevent protein unfolding and loss of activity due to low concentrations.[67,68] 100 μM of the reporter substrate nitrocefin (VIM-2, GIM-1) or imipenem (NDM-1) was added to the enzyme–inhibitor solution and the increase in absorbance at 482 nm (nitrocefin) or 300 nm (imipenem) was recorded on a Spectramax M4 spectrophotometer (Molecular Devices). Each data point was performed in triplicates and the initial velocity for each inhibitor concentration was analyzed by a log [inhibitor] vs. response curve fitting to calculate IC50 in GraphPad Prism 9.2 software.

In the next assay the target is T2, VIM-2 (Escherichia coli, UniProt Q5U7L7).
T2 construct: made in house
In words: Dose rate inhibition studies for IC50 determination, VIM-2 enzymatic assay. The note with it: inhibitor 0-800 μM, 3 parallel measurements, N.I. = no enzyme inhibitory activity observed; for Enzyme IC50 VIM-2: 0.1 nM VIM-2, 100 μM ZnCl2, nitrocefin substrate; for IC50: Enzyme IC50 VIM-2, 0.1 nM VIM-2, 100 μM ZnCl2, nitrocefin substrate. Type of assay: biochemical. How it is done:
as §1, §2

T1 sequence (C7C422 29-270 limits assumed): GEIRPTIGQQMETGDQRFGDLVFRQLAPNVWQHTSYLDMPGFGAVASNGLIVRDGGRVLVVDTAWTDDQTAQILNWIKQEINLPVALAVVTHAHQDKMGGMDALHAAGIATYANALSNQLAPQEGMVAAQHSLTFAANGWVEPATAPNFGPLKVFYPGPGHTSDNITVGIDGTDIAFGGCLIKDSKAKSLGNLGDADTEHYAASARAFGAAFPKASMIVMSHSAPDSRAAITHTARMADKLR

As for `Cc1[nH]c(=S)sc1CC(=O)NC(C1CCCCN1)P(=O)(O)O` (centres unmarked) [Compound 5a-2, ((2-(4-Methyl-2-thioxo-2,3-dihydrothiazol-5-yl)acet-amido)(piperidin-2-yl)methyl)phosphonic acid hydro-chloride], at NDM-1, the “Enzyme IC50 NDM-1” value is listed as “N.I”. The “Enzyme IC50 VIM-2” value at VIM-2 is recorded as “N.I”.

For the molecule `O=C(NC(C1CCCCN1)P(=O)(O)O)c1csc2ccccc12` (centres unmarked) [Compound 5h-2, ((Benzo[b]thiophene-3-carboxamido)(piperidin-2-yl)met-hyl)phosphonic acid hydrochloride], the “Enzyme IC50 NDM-1” value at NDM-1 is reported as “N.I”. In addition, it took 11.6 ± 4.7 µM to reach half-maximal inhibition at VIM-2 (IC50).

With `Cl.O=C(NC(C1CCCCN1)P(=O)(O)O)c1cc2c(s1)CCCC2` (centres unmarked) [Compound 5d-2, (Piperidin-2-yl(4,5,6,7-tetrahydrobenzo[b]thiophene-2-carboxamido)methyl)phosphonic acid hydrochloride], the “Enzyme IC50 NDM-1” value on NDM-1 was “N.I”. On VIM-2, this molecule yielded a half-maximal inhibitory concentration (IC50) of 4.5 ± 0.8 µM.

Regarding `O=C(Cc1ccsc1)NC(C1CCCCN1)P(=O)(O)O` (centres unmarked) [Compound 5j-2, (Piperidin-2-yl(2-(thiophen-3-yl)acetamido)methyl)phos-phonic acid hydrochloride], the “Enzyme IC50 NDM-1” value on NDM-1 is “N.I”. On VIM-2, the “Enzyme IC50 VIM-2” value was “N.I”.

With `Cl.O=C(NC(C1CCCCN1)P(=O)(O)O)c1cc2c(s1)CCCC2` (centres unmarked) [Compound 5d-1, (Piperidin-2-yl(4,5,6,7-tetrahydrobenzo[b]thiophene-2-carboxamido)methyl)phosphonic acid hydrochloride], on NDM-1, the “Enzyme IC50 NDM-1” value is “N.I”. On VIM-2, this molecule came in with a concentration for half-maximal inhibition (IC50) of 244 ± 35 µM.

Take `O=C(NC(C1CCCCN1)P(=O)(O)O)c1cc2ccccc2s1` (centres unmarked) [Compound 5g-1, ((Benzo[b]thiophene-2-carboxamido)(piperidin-2-yl)methyl)phosphonic acid hydrochloride]: the IC50 turned out to be 46.7 ± 9.7 µM against NDM-1 and 45 ± 5 µM on VIM-2.

Consider `Cl.O=C(Cc1cc2ccccc2s1)NC(C1CCCCN1)P(=O)(O)O` (single isomer, unassigned) [Compound 5k-1, ((2-(Benzo[b]thiophen-2-yl)acetamido)(piperidin-2-yl)methyl)phosphonic acid hydrochloride], for which the “Enzyme IC50 NDM-1” value on NDM-1 is listed as “N.I”. On VIM-2, this molecule displayed an IC50 of 56.6 ± 1 µM.

Molecule `O=C(Cc1cc2ccccc2s1)NC(C1CCCCN1)P(=O)(O)O` (single isomer, unassigned) [Compound 5k-2, ((2-(Benzo[b]thiophen-2-yl)acetamido)(piperidin-2-yl)methyl)phosphonic acid hydrochloride] displayed a concentration for half-maximal inhibition (IC50) on VIM-2 of 28.7 ± 10.1 µM.

Turning to `Cl.O=C(NC(C1CCCCN1)P(=O)(O)O)c1scc2c1CCCC2` (single isomer, unassigned) [Compound 5f-1, (Piperidin-2-yl(4,5,6,7-tetrahydrobenzo[c]thiophene-1-carboxamido)methyl)phosphonic acid hydrochloride], the “Enzyme IC50 NDM-1” value on NDM-1 is on record as “N.I”. At VIM-2, this molecule displayed an IC50 of 37 ± 3 µM.

Consider `Cl.O=C(NC(C1CCCCN1)P(=O)(O)O)c1scc2c1CCCC2` (single isomer, unassigned) [Compound 5f-2, (Piperidin-2-yl(4,5,6,7-tetrahydrobenzo[c]thiophene-1-carboxamido)methyl)phosphonic acid hydrochloride], for which, on NDM-1, the “Enzyme IC50 NDM-1” value is on record as “N.I”. The half-maximal inhibitory concentration (IC50) on VIM-2 amounted to 18.8 ± 0.5 µM.

With `Cl.O=C(NC(C1CCCCN1)P(=O)(O)O)c1csc2c1CCCC2` (single isomer, unassigned) [Compound 5e-2, (Piperidin-2-yl(4,5,6,7-tetrahydrobenzo[b]thiophene-3-carboxamido)methyl)phosphonic acid hydrochloride], the “Enzyme IC50 NDM-1” value on NDM-1 was “N.I”. Besides, at VIM-2, the IC50 was found to be 46.1 ± 15.6 µM.

Consider `O=C(NC(C1CCCCN1)P(=O)(O)O)c1csc2ccccc12` (centres unmarked) [Compound 5h-1, ((Benzo[b]thiophene-3-carboxamido)(piperidin-2-yl)met-hyl)phosphonic acid hydrochloride], for which the “Enzyme IC50 NDM-1” value on NDM-1 is recorded as “N.I”. Also, inhibition at VIM-2 was half-maximal at 40.6 ± 3.9 µM (IC50).

For `O=C(NC(C1CCCCN1)P(=O)(O)O)c1csc2c1CCCC2` (single isomer, unassigned) [Compound 5e-1, (Piperidin-2-yl(4,5,6,7-tetrahydrobenzo[b]thiophene-3-carboxamido)methyl)phosphonic acid hydrochloride], the half-inhibitory concentration (IC50) against VIM-2 came to 69.7 ± 26.2 µM.

For `O=C(NC(C1CCCCN1)P(=O)(O)O)c1ccsc1` (centres unmarked) [Compound 5c-2, (Piperidin-2-yl(thiophene-3-carboxamido)methyl)phos-phonic acid hydrochloride], the “Enzyme IC50 NDM-1” value on NDM-1 was “N.I”. The molecule further returned a half-inhibitory concentration (IC50) at VIM-2 of 14.6 ± 2.3 µM.

Regarding `O=C(NC(C1CCCCN1)P(=O)(O)O)c1cc2ccccc2s1` (centres unmarked) [Compound 5g-2, ((Benzo[b]thiophene-2-carboxamido)(piperidin-2-yl)methyl)phosphonic acid hydrochloride], the IC50 against NDM-1 was 46.8 ± 5.5 µM; against VIM-2 it was 4.1 ± 2.1 µM.

Take `O=C(Cc1csc2ccccc12)NC(C1CCCCN1)P(=O)(O)O` (centres unmarked) [Compound 5l-2, ((2-(Benzo[b]thiophen-3-yl)acetamido)(piperidin-2-yl)methyl)phosphonic acid hydrochloride]: the IC50 came to 27.8 ± 21 µM on NDM-1 and 94.4 ± 5.8 µM on VIM-2.

With `Cl.O=C(Cc1csc2ccccc12)NC(C1CCCCN1)P(=O)(O)O` (centres unmarked) [Compound 5l-1, ((2-(Benzo[b]thiophen-3-yl)acetamido)(piperidin-2-yl)methyl)phosphonic acid hydrochloride], half-maximal inhibition on NDM-1 (IC50) required 7.9 ± 1.6 µM. Besides, on VIM-2, the “Enzyme IC50 VIM-2” value is given as “N.I”.
